# Measurements published in patent US8940271B2, “Transmucosal administration of drug compositions for treating and preventing disorders in animals” (Abbott Laboratories, priority 2005, dated 2015).
# Read-outs that look alike come from different tables or passages of the source.
# Key:
# [1] = pH dependence of dissolution/precipitation of 1% meloxicam; type: physicochemical
# Procedure: NaOH solution (1 M) was added to the mixture to provide a pH of 10. […] Each solution was then titrated with HCl (aq). […] Similarly, for the 85:15 water:ethanol solvent system, a precipitate formed when the initial apparent pH of 12 was reduced to 7.7 (by addition of HCl).
# [2] = Stability of meloxicam with various solubilizing agents; type: physicochemical; conditions: storage with PVA, Polysorbate 80 or glycerin
# [3] = pH dependence of dissolution/precipitation of 1% meloxicam; type: physicochemical; conditions: 95:5 water:propylene glycol, concentrated NaOH solution (10 M) added
# [4] = Canine anesthetized meloxicam absorption study; conditions: TMOM
# Procedure: A canine anesthetized absorption study was also carried out. The subjects were anesthetized dogs using minimal pre-anesthetics (isoflurane via an endotracheal tube). The possibility of run off into and absorption by the gastrointestinal tract was prevented by obstructing the esophagus with a Foley catheter. […] Blood samples were taken 0, 5, 30 min, and 1, 2, 4, 8, 12, 24, and 72 hours post-dose. Jugular and cephalic vein samples were obtained 5, 30 min and 4, 8 hours post-dose.
# [5] = Canine meloxicam absorption study (TMOM vs oral suspension); conditions: ~0.2 mg/kg, dogs
# Procedure: The average oral suspension dose was 0.20 mg/kg (range 0.19-0.21 mg/kg), and the average dose using transmucosal oral administration was 0.20 mg/kg (range 0.19-0.21 mg/kg). Blood samples were obtained at 0, 5, 30 minutes and 1, 2, 4, 8, 12, 24, 48, and 72 hours post dose.
# The AUC represents the area under the curve or the total amount of drug exposure to the animal following administration by the two different dosage forms. […] Absorption half-life is the amount of time it takes for half of what is left at the site of absorption to be absorbed.
# [6] = dogs
# Procedure: A six dog, two-way crossover experiment was carried out with a target dose of 6.0 mg/kg propofol administered by IV, and 30.0 mg/kg of propofol using transmucosal oral administration.
# [7] = Canine anesthetized clemastine absorption study; type: in vivo, dog; conditions: anesthetized canine subjects, TMOM
# Procedure: A canine anesthetized absorption study was also carried out.
# [8] = equine, oral gavage; Törneke et al. 2003; cited from earlier work
# in vivo [9] = conditions: dog, plasma, po, 1 mg/kg
# Procedure: (§2) The target dose for canine subjects was 1 mg/kg (both transmucosal oral administration and tablets). The average tablet dose was 0.96 mg/kg (0.95-0.97 mg/kg) and the average transmucosal oral administration dose was 0.97 mg/kg (0.91-1.06 mg/kg) administered in a spray volume of 400-650 μL using 4-7 pumps of the spray device. The target dose for feline subjects was also 1 mg/kg for both transmucosal oral administration and tablets. The average tablet dose of 1.07 mg/kg (0.89-1.22 mg/kg) and the average transmucosal oral administration dose was 0.95 mg/kg (0.83-1.14 mg/kg) administered in a spray volume of 100-200 μL using 1-2 pumps of the spray device. The target dose for equine subjects was 0.1 mg/kg for both transmucosal oral administration and tablets. The average tablet dose (via stomach tube) was 0.1 mg/kg (0.10-0.11 mg/kg) and the average transmucosal oral administration dose was 0.1 mg/kg (0.09-0.11 mg/kg) administered in a spray volume of 1.4-1.7 mL using 14-17 pumps of the spray device.
# (§3) Blood samples were taken 5, 15, 30 min, 1, 2, 4, 7, 12, 24 hours post dose.
# in vivo [10] = conditions: horse, plasma, po, 0.1 mg/kg
# Procedure: as §2, §3
# [11] = Clemastine two-way crossover, tablets vs TMOM, canine
# Procedure: as §2, §3
# [12] = Clemastine two-way crossover, tablets (stomach tube) vs TMOM, equine
# Procedure: as §2, §3
# [13] = Milbemycin canine study, tablets vs TMOM; type: in vivo, dog; conditions: dogs
# Procedure: A twelve dog random parallel design was carried out to compare conventional oral administration (i.e., tablets) of Milbemycin with transmucosal oral administration. The tablets used were Interceptor® Flavor Tab®, 5.75 mg and 11.5 mg, providing an average dose of 0.78 mg/kg (0.50-0.99 mg/kg).
# [14] = Zolpidem two-way crossover, tablet vs TMOM, canine; conditions: for absorption time and absorption half-life, TMOM vs tablet / peak plasma concentration (Cmax), TMOM vs tablet: dogs
# Procedure: (§1) A six animal (canine and feline) two-way crossover experiment was carried out in which the subjects were administered a zolpidem tablet or a transmucosal oral mist of a 2.5% zolpidem tartrate solution.
# Canine subjects were administered tablets (average dose 0.55 mg/kg (0.40-0.63 mg/kg)) or a transmucosal oral mist (average dose 0.55 mg/kg (0.42-0.62 mg/kg)). The transmucosal oral mist administration used a spray volume of 200-250 μL in 2-3 pumps of the spray dispenser. By comparison, the average human dose is 0.08-0.17 mg/kg
# [15] = Zolpidem two-way crossover, tablet vs TMOM, feline
# Procedure: as §1
# Feline subjects were administered tablets (average dose 0.74 mg/kg) or a transmucosal oral mist (average dose 0.72 mg/kg). The transmucosal oral mist used a spray volume of 100 μL in 1 pump of the spray dispenser.
# [16] = Canine carprofen study (caplet, TMOM, subcutaneous injection); type: in vivo, dog; conditions: dogs
# [17] = Canine anesthetized carprofen absorption study; type: in vivo, dog; conditions: TMOM
# Procedure: A canine anesthetized absorption study was also carried out. […] The carprofen was administered using a transmucosal oral mist. Blood samples were taken 0, 5, 15, 30 min, and 1, 2, 4, 8, 12, and 24 hours post-dose. Jugular and cephalic vein samples were obtained 5, 15 and 30 and 1 and 2 hours post-dose. The target dosage was 2.2 mg/kg (50 mg/mL Rimadyl® injectable solution, 300 μL (15 mg), target dose range 1.9-2.5 mg/kg).
# [18] = cited from earlier work
# [19] = Enrofloxacin feline study, tablets vs TMOM; type: in vivo, cat; conditions: cats
# Procedure: A six cat, two-way crossover study was carried out to compare conventional oral administration (i.e., tablets, Baytril®) with transmucosal oral administration (Baytril® 100; 100 mg of enrofloxacin, L-arginine base 200 mg, n-butyl alcohol 30 mg, benzyl alcohol (as a preservative) 20 mg, and water for injection, q.s.). The target was 5 mg/kg enrofloxacin. The average tablet dose was 4.7 mg/kg and the average TMOM™ dose was 4.9 mg/kg (250-300 μL).
# [20] = ~0.5 mg/kg, listed as zolpidem tartrate
compound,measurement,setting,value
"Cc1cnc(NC(=O)C2=C(O)c3ccccc3S(=O)(=O)N2C)s1 [Meloxicam, 4-hydroxy-2-methyl-N-(5-methyl-2-thiazolyl)-2H-1,2-benzothiazine-3-carboxamide-1,1-dioxide]",pH needed for meloxicam to remain in solution,[1],greater than 8.0
same,pH value of solution causing meloxicam precipitation,[1],less than 8
same,apparent pH at which a precipitate formed,"[1]; 1% meloxicam, 85:15 water:ethanol, initial apparent pH of 12 reduced by HCl",7.7
same,pH at which meloxicam precipitation was observed,"[1]; 1% meloxicam, 100% water, titrated with HCl (aq)",7.2
same,dissolution of 1% meloxicam,"[1]; 80% water/15% EtOH/5% Poloxamer 188, 1 M NaOH added to pH of 10",dissolve
same,dissolution of 1% meloxicam,"[1]; 80% water/15% EtOH/5% Poloxamer 188, acidified to pH of 7 with 0.2 M HCl",precipitate
same,dissolution of 1% meloxicam,"[1]; 80% water/15% EtOH/5% Poloxamer 188, additional 1 M NaOH, pH to 8",redissolved and remained in solution
same,dissolution of 1% meloxicam,"[1]; 80% water/15% EtOH/5% Poloxamer 188, pH of approximately 5.8",did not dissolve completely
same,dissolution of 1% meloxicam,"[1]; 100% water, pH adjusted to 10.1",redissolved
same,dissolution of 1% meloxicam,"[1]; 100% water, pH then reduced to approximately 7.8",no further precipitation
same,physical stability of the meloxicam solution,[2],greater with PVA than Polysorbate 80 or glycerin
same,dissolution of 1% meloxicam,[3],did not dissolve
same,jugular plasma levels as compared to cephalic (systemic) levels,"[4]; anesthetized dogs, at 30 min and 4 h",higher
same,part of the dose in an awake animal delivered transmucosally,[4]; dogs,≤ 90%
same,bioequivalence to meloxicam administered via an oral suspension,[5],bioequivalent
CC(C)c1cccc(C(C)C)c1O [propofol],uptake using transmucosal oral administration,[6],rapid
same,Cmax value compared to IV administration,[6]; TMOM ~30 mg/kg vs IV ~6 mg/kg,somewhat lower
same,part of transmucosally administered dose absorbed,"[6]; TMOM ~30 mg/kg, by 2 hours",Greater than 90%
CN1CCC[C@@H]1CCO[C@](C)(c1ccccc1)c1ccc(Cl)cc1 [clemastine],absorption via the transmucosal route,[7],readily absorbed
same,absorption,cats,well absorbed
same,salivation,feline subjects,mild to severe
same,"AUC values, transmucosal oral vs tablet","feline, ~1 mg/kg, appears to be an artifact of salivation",Lower
same,t1/2,[8],2.9 h
same,Tmax,in vivo [9],~0.167 h
same,half-life,in vivo [10],2.8 h
same,salivation,[11]; canine subjects,none to moderate
same,"peak (Cmax), transmucosal oral vs tablet","[11]; canine, ~1 mg/kg",much higher
same,"AUC and Cmax, TMOM route vs oral tablet route","[11]; dogs, 1 mg/kg",about an order of magnitude greater
same,"Tmax, transmucosal oral vs oral gavage of tablets",[12]; 0.1 mg/kg,shorter
same,"bioavailability, transmucosal oral vs oral gavage of tablets",[12]; 0.1 mg/kg,significantly better
same,bioavailability of clemastine in tablet form,[12]; oral gavage,extremely poor
Milbemycin,"variability of plasma concentrations, transmucosal vs tablet",[13],less variable
same,uptake by transmucosal oral administration,[13]; 0.28 mg/kg,very good
same,"bioavailability, transmucosal oral administration vs conventional tablet",[13]; corrected for dosage,similar
"Cc1ccc(-c2nc3ccc(C)cn3c2CC(=O)N(C)C)cc1 [zolpidem, N,N-6-trimethyl-2-p-tolyl-imidazo[1,2-a]pyridine-3-acetamide]",vomiting after TMOM administration,"[14]; canine, 12 minutes after administration",One of the canine subjects vomited
same,time within which substantially all of the dose was absorbed,"[14]; canine, TMOM",≤ 12 min
same,"AUC, TMOM vs tablet","[14]; canine, ~0.5 mg/kg",greater
same,"Tmax, TMOM vs tablet","[14]; canine, ~0.5 mg/kg",shorter
same,"absorption time and absorption half-life, TMOM vs tablet",[14]; ~0.5 mg/kg,shorter
same,"peak plasma concentration (Cmax), TMOM vs tablet",[14]; ~0.5 mg/kg,greater
same,"absorption time and absorption half-life, TMOM vs tablet",[14]; [20],significantly lower (shorter)
same,"peak plasma concentration (Cmax), TMOM vs tablet",[14]; [20],higher
same,"absorption time, peak plasma concentration, and total absorption, TMOM vs tablet","[15]; cats, within experimental error",comparable
same,"AUC, TMOM vs tablet","[15]; feline, salivation can lead to reduced absorption",lower
CC(C(=O)O)c1ccc2c(c1)[nH]c1ccc(Cl)cc12 (stereo not shown) [carprofen],"Cmax and AUC values, caplet vs transmucosal oral administration",[16],very similar
same,Cmax of the subcutaneous injection relative to caplet or transmucosal oral administration,[16],approximately half
same,"Tmax, transmucosal oral administration vs caplet",[16],shorter
same,"absorption and Tmax, subcutaneous injection vs caplet or TMOM",[16],slower absorption and greater time to peak concentrations
same,"absorption, transmucosal oral administration vs caplet",[16],slightly faster
same,lag time,[16]; transmucosal oral administration,no lag time
same,AUC values of the three administration methods,"[16]; caplet, TMOM, subcutaneous injection",all similar
same,plasma jugular levels as compared to cephalic levels,"[17]; anesthetized dogs, at 30 min",higher
same,AUC for anesthetized animals relative to awake animals,[17]; dogs,approximately 25%
"C[C@H]1O[C@@H](O[C@H]2[C@@H](O)C[C@H](O[C@H]3[C@@H](O)C[C@H](O[C@H]4CC[C@@]5(C)[C@H](CC[C@@H]6[C@@H]5C[C@@H](O)[C@]5(C)[C@@H](C7=CC(=O)OC7)CC[C@]65O)C4)O[C@@H]3C)O[C@@H]2C)C[C@H](O)[C@@H]1O [Digoxin, (3β,5β,12β)-3-[(O-2,6-dideoxy-β-D-ribo-hexopyranosyl-(1,4)-O-2,6-dideoxy-β-D-ribo-hexopyranosyl-(1,4)-O-2,6-dideoxy-β-D-ribo-hexopyranosyl)oxy]-12,14-dihydroxy-card-20(22)-enolide]",solubility,[18]; in chloroform,slightly soluble
same,solubility,"[18]; in diluted (e.g., about 50%) alcohol",slightly soluble
same,solubility,[18]; in ether,practically insoluble
same,solubility,[18]; in pyridine,freely soluble
same,solubility,[18]; in water,practically insoluble
CCN1CCN(c2cc3c(cc2F)c(=O)c(C(=O)O)cn3C2CC2)CC1 [enrofloxacin],lag time in uptake,[19]; TMOM,no lag time
same,jugular plasma concentrations as compared to cephalic concentrations,"[19]; TMOM, 5 min time point",Consistently and significantly higher
same,"AUC, Cmax, Tmax or t1/2 values, transmucosal vs conventional administration",[19]; ~5 mg/kg,essentially no difference
